Tests used:
Format in all cases: cell-based
[1] = test system: Salmonella enterica ATCC 14028; experiment: Log kill of Salmonella enterica ATCC 14028 in suspension, plating on tryptic soy agar; conditions: for Log Kill Salmonella (ATCC 14028) / Relative Kill Salmonella (ATCC 14028): 15 seconds
Protocol: (§1) The tests were performed at room temperature, e.g., 71 deg. […] The reaction was permitted to proceed for the time indicated for each test in Table 1, and was terminated by the introduction of a quench buffer comprising 4.2 M potassium phosphate buffer, pH 7.2. […] The plating medium was Salmonella Shigella agar, […]. The reduction in the bacteria count is expressed as the “log kill.” “Log kill” is generally defined as log10[initial cfu/ml]−log10[remaining cfu/ml].
Similar tests were performed using Salmonella enterica ATCC 14028 instead of the M61 Salmonella, and tryptic soy agar was employed instead of Salmonella Shigella agar.
The same tests were repeated using Salmonella enterica ATCC 14028 instead of the M61 Salmonella, and tryptic soy agar was employed instead of Salmonella Shigella agar.
The same tests were repeated using Salmonella enterica ATCC 14028 instead of Salmonella M61, and tryptic soy agar was employed instead of Salmonella shigella.
Another series of tests were performed as those resulting in Table VB, except that the acids were present in a total amount of 2%.

Salmonella culture (M61) = experiment: Log kill of Salmonella M61 in suspension, acid treatment, quench and plating on Salmonella Shigella agar
Protocol: In each instance a target sample was employed using approximately 50 micro liters of a Salmonella culture (given the name “M61”) derived from a sample of chicken meal contaminated with chicken feces and approximately 1.5×10^7 cells per ml. […] The results obtained were consistent with the genus Salmonella.
as §1
An experiment was performed using the same protocol as in Example 1, except that the duration of treatment with the antimicrobial agent was maintained constant at 20 seconds. […] All tests were conducted at an ambient temperature of approximately 71 deg. F.
An experiment was performed using the same protocol as in Example 3. In this case, the target organism was a sample of “M61” Salmonella.

Escherichia coli (SAC-2) = experiment: Log kill of E. coli SAC-2 by lactic/citric acid mixtures; conditions: 2.5% acid, total; 15 seconds, 76 deg F
Protocol: (§2) The tests were performed at room temperature, e.g., 71 deg. F. A reaction mixture was prepared including the Salmonella, water and the aqueous solution of lactic acid. The reaction was permitted to proceed for the time indicated for each test in Table 1, and was terminated by the introduction of a quench buffer comprising 4.2 M potassium phosphate buffer, pH 7.2. The results of the test were evaluated using a series of 10-fold dilutions as needed to determine, on a standard plating agar, the titer of bacteria that survived the antimicrobial treatment. The plating medium was Salmonella Shigella agar, a medium that would allow the growth of most bacteria. The reduction in the bacteria count is expressed as the “log kill.” “Log kill” is generally defined as log10[initial cfu/ml]−log10[remaining cfu/ml].
An experiment was performed using the same protocol as in Example 1. In this case, the target bacteria was a sample of E. coli (given the name “SAC-2”) taken from a local sewer facility. The isolate was characterized using standard microbiological methods including selective and indicative culture media and other metabolic tests. The results obtained were consistent with E. coli.
(§3) The duration of treatment was 15 seconds at an ambient temperature of 76 deg F.

[2] = test system: Escherichia coli (ATCC 12435); experiment: Log kill of E. coli ATCC 12435 by lactic/citric acid mixtures; conditions: 2.5% acid, total; 15 seconds, 76 deg F
Protocol: as §2, §3
The same tests were repeated using E. coli ATCC 12435 instead of the SAC-2 E. coli, and tryptic soy agar was employed instead of Salmonella Shigella agar.

| SMILES | Log Kill Salmonella (ATCC 14028) ([1]; 2.0% total acid) | Relative Kill Salmonella (ATCC 14028) ([1]; 2.0% total acid, 40/40 = 1) | Citric Acid Efficacy Log kill (75 F., 20 sec) ([1]; 2.5 % citric acid, Salmonella ATCC 14028, 75 F., 20 sec) | Salmonella (ATCC 14028) Log Kill ([1]; 2.5 wt % aqueous solution, 15 sec.) | Log Kill Salmonella (ATCC 14028) ([1]; […] total acid) | Relative Kill Salmonella (ATCC 14028) ([1]; […] total acid, 80/0 = 1) | Salmonella (M61) Log Kill (Salmonella culture (M61); 2.5 wt % aqueous solution, 80 sec., room temperature 71 deg. F) | performance compared to that of lactic acid, Salmonella M61 log kill (Salmonella culture (M61); 2.5 wt. % solution, 80 seconds) | Log Kill Escherichia coli (SAC-2) (Escherichia coli (SAC-2)) | Log Kill Escherichia coli (ATCC 12435) [2] |
| --- | --- | --- | --- | --- | --- | --- | --- | --- | --- | --- |
| O=C(O)CC(O)(CC(=O)O)C(=O)O [citric acid] | 0.444 | 0.663 | 0.555 | 0.56 log kill | 0.322 | 0.422 | 0.29 log kill | poor |  |  |
| CC(O)C(=O)O (stereo not shown) [lactic acid] |  |  |  |  |  |  |  |  | 0.953 | 1.93 |
